According to paper PMC8945123 (ACS Omega, 2022):
“And” between values parts separate entries of the source, which are not always exact repeats. Equal values may be shown once. “Also recorded” adds a separate entry of the source. Read-outs that look alike come from different tables or passages of the source.

What was measured:
eqBChE = eqBChE (Equus caballus, UniProt P81908); experiment: In vitro eqBChE inhibition, Ellman's method; assay type: biochemical
eeAChE = eeAChE (Electrophorus electricus, UniProt O42275); experiment: In vitro eeAChE inhibition, Ellman's method; assay type: biochemical; details: for IC50: mean ± SEM (n = 3)
eeAChE, sequence (O42275 24-633): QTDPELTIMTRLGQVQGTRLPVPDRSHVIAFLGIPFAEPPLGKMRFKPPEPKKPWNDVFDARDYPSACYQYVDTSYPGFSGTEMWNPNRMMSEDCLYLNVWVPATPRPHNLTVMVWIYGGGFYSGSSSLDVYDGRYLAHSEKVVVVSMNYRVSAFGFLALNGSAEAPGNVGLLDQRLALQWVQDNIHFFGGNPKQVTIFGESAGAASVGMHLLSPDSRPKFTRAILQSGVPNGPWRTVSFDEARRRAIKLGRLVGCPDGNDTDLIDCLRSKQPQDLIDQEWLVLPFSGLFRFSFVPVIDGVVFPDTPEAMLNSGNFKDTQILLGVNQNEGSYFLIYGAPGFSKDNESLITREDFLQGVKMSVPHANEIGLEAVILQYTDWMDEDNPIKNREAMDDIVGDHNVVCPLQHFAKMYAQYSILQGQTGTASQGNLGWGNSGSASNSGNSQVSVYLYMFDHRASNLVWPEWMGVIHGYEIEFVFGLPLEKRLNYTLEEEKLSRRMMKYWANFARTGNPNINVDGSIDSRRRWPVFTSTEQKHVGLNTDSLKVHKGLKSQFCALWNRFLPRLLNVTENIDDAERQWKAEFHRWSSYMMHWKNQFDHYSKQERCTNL

hMAO-A = molecular target: T1, hMAO-A (Homo sapiens, UniProt P21397); experiment: In vitro inhibition of recombinant human MAO-A, fluorometric; assay type: biochemical; details: for IC50 (μM) ± SEM hMAO-A: mean ± SEM (n = 3)
T1 sequence (P21397 1-527): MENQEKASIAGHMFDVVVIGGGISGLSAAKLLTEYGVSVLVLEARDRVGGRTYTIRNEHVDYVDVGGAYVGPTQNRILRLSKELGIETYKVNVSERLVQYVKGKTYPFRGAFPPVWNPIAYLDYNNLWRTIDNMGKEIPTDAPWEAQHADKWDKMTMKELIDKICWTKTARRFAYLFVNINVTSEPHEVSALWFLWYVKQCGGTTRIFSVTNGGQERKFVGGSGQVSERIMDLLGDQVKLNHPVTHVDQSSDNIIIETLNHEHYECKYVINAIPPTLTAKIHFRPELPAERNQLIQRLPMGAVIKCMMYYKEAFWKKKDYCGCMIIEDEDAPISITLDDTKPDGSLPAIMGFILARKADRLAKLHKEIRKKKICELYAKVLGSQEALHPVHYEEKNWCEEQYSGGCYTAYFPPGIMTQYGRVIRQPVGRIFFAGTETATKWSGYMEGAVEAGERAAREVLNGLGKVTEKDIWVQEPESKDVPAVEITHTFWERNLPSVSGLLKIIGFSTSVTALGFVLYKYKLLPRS

hMAO-B = molecular target: T2, hMAO-B (Homo sapiens, UniProt P27338); experiment: In vitro inhibition of recombinant human MAO-B, fluorometric; assay type: biochemical
T2 sequence (P27338 1-520): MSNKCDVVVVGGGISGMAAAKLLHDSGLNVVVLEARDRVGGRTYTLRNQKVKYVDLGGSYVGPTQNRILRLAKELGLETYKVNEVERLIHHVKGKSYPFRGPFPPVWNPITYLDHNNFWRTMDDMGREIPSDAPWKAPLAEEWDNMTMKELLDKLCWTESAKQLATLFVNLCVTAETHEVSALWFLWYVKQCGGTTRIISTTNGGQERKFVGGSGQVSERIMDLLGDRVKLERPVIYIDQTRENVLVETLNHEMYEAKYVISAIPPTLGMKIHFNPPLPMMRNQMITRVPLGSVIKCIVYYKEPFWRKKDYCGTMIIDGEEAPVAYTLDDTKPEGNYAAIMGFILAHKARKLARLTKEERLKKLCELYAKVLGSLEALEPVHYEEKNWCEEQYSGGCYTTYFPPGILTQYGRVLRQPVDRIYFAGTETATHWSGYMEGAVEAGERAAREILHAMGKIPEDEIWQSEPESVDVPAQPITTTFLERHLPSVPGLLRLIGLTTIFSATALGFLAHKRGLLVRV

[1] = PAMPA-BBB permeation assay; details: prediction of BBB penetration from Pe
animals = experiment: Acute oral toxicity in animals; assay type: in vivo; details: doses from 50 to 2000 mg/kg body weight, eight animals per group
[2] = Neurotoxicity MTT assay on neuroblastoma SH-SY5Y cells; assay type: cell-based; details: human
acetylcholinesterase = acetylcholinesterase (Electrophorus electricus, UniProt O42275); experiment: Kinetic analysis of AChE inhibition; assay type: biochemical
acetylcholinesterase, sequence (O42275 24-633): as the sequence (O42275 24-633) above

eqBChE, sequence (P81908 whole entry): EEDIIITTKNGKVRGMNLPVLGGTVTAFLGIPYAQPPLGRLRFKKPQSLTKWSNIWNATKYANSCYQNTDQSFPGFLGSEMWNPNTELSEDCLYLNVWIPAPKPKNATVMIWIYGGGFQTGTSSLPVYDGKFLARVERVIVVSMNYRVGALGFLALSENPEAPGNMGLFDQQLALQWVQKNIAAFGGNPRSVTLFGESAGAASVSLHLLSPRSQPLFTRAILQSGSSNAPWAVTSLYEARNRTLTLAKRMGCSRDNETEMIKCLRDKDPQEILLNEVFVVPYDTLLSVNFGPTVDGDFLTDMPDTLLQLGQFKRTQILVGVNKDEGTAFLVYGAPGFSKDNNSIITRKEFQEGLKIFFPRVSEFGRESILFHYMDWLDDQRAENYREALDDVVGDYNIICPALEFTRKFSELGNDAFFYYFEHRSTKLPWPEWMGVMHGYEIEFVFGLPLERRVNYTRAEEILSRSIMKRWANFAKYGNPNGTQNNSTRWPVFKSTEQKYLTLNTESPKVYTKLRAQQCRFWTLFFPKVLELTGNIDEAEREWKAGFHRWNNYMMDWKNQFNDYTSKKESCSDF

Structure (SMILES)	IC50 (eqBChE) [nM]	SI = selectivity index = IC50 of eqBChE/IC50 of eeAChE (eeAChE)	IC50 (eeAChE; IC50 (μM) ± SEM eeAChE)	IC50 (hMAO-A) [nM]	IC50 (hMAO-B) [nM]	SI = selectivity index = IC50 of hMAO-A/IC50 of hMAO-B (hMAO-B)	prediction (PAMPA-BBB) (CNS+, CNS–) [1]	further results
COc1ccc(C2CC(=O)C3=C(C2)N=c2s/c(=C\c4ccc(OCc5ccccc5)cc4)c(=O)n2C3c2c[nH]c3ccccc23)cc1 (centres unmarked) [Compound 33]	1010 ± 60	1.3	0.79 ± 0.09 µM	48400 ± 2280	670 ± 10	72.2		
Cc1nnc2n1-c1ccc(Cl)cc1C(c1ccccc1)=NC2 [alprazolam]							CNS+ (‘CNS+’ (prediction of high BBB permeation); Pe (10^–6 cm/s) > 4.39)	
CC1(C)CC(=O)C2=C(C1)N=c1s/c(=C\c3c[nH]c4ccccc34)c(=O)n1C2c1c[nH]c2ccccc12 (centres unmarked) [Compound 26]	19300 ± 1140	3.1	6.21 ± 0.16 µM	570 ± 80	240 ± 10	2.4		
O=C1CC(c2ccccc2)CC2=C1C(c1c[nH]c3ccccc13)n1c(s/c(=C\c3ccc(OCc4ccccc4)cc3)c1=O)=N2 (centres unmarked) [Compound 32]	1700 ± 110	1.9	0.86 ± 0.14 µM	11200 ± 1300	810 ± 10	13.9		
O=C1CCCC2=C1C(c1c[nH]c3ccccc13)n1c(s/c(=C\c3ccc(OCCNCCc4c[nH]c5ccccc45)cc3)c1=O)=N2 (centres unmarked) [Compound 34]	440 ± 10	3.7	0.12 ± 0.01 µM	1500 ± 10	280 ± 10	5.3		
O=C1CCCC2=C1C(c1c[nH]c3ccccc13)n1c(s/c(=C\c3ccc(OCc4ccccc4)cc3)c1=O)=N2 (centres unmarked) [Compound 30]	8970 ± 770	1.9	4.67 ± 0.29 µM	480 ± 30	370 ± 10	1.3		acute toxicity (survival, clinical signs) (animals): All animals were found alive
NCCc1ccc(O)c(O)c1 [dopamine]							CNS- (“CNS-” (prediction of low BBB permeation); Pe (10^–6 cm/s) < 1.78)	
CC1(C)CC(=O)C2=C(C1)N=c1s/c(=C\c3ccc(OCc4ccccc4)cc3)c(=O)n1C2c1c[nH]c2ccccc12 (centres unmarked) [Compound 31]	13900 ± 990	3.7	3.71 ± 0.11 µM	630 ± 40	380 ± 10	1.6		
CCn1cc(C(=O)O)c(=O)c2cc(F)c(N3CCNC(C)C3)c(F)c21 (centres unmarked) [lomefloxacin]							CNS- (“CNS-” (prediction of low BBB permeation); Pe (10^–6 cm/s) < 1.78)	
CC1(C)CC(=O)C2=C(C1)N=c1s/c(=C\c3ccc(OCCNCCc4c[nH]c5ccccc45)cc3)c(=O)n1C2c1c[nH]c2ccccc12 (centres unmarked) [Compound 35]	630 ± 70	15.0	0.04 µM and 0.042 µM	1930 ± 10	330 ± 10	5.8	CNS+ (‘CNS+’ (prediction of high BBB permeation); Pe (10^–6 cm/s) > 4.39)	viability at 1 µM [2]: 98.9 ± 1.23%; viability at 10 µM [2]: 95.2 ± 1.54%; viability at 20 µM [2]: 94.9 ± 1.01%; viability at 40 µM [2]: 91.6 ± 1.59%; acute toxicity (survival, clinical signs) (animals): All animals were found alive; Ki (acetylcholinesterase): 12 nM; type of inhibition (acetylcholinesterase; Lineweaver–Burke double reciprocal plot): mixed inhibition mode; also recorded: mixed-type inhibition
COc1ccc(C2CC(=O)C3=C(C2)N=c2s/c(=C\c4c[nH]c5ccccc45)c(=O)n2C3c2c[nH]c3ccccc23)cc1 (centres unmarked) [Compound 28]	10500 ± 1090	11.8	0.89 ± 0.1 µM	36900 ± 1220	310 ± 10	119.2		
CC(=O)[C@H]1CC[C@H]2[C@@H]3CCC4=CC(=O)CC[C@]4(C)[C@H]3CC[C@]12C [progesterone]							CNS+ (‘CNS+’ (prediction of high BBB permeation); Pe (10^–6 cm/s) > 4.39)	
COc1ccc(C2CC(=O)C3=C(C2)N=c2s/c(=C\c4ccc(OCCNCCc5c[nH]c6ccccc56)cc4)c(=O)n2C3c2c[nH]c3ccccc23)cc1 (centres unmarked) [Compound 37]	980 ± 110	14.2	0.07 µM and 0.069 µM		140 ± 10		CNS+ (‘CNS+’ (prediction of high BBB permeation); Pe (10^–6 cm/s) > 4.39)	viability at 1 µM [2]: 96.1 ± 0.98%; viability at 10 µM [2]: 92.1 ± 1.09%; viability at 20 µM [2]: 90.33 ± 0.83%; viability at 40 µM [2]: 88.2 ± 1.55%; acute toxicity (survival, clinical signs) (animals): All animals were found alive; IC50 (μM) ± SEM hMAO-A (hMAO-A): not able to show MAO-A inhibition activity at tested concentration
O=C1CC(c2ccccc2)CC2=C1C(c1c[nH]c3ccccc13)n1c(s/c(=C\c3c[nH]c4ccccc34)c1=O)=N2 (centres unmarked) [Compound 27]	13700 ± 1210	14.1		9360 ± 1010	470 ± 10	19.9		IC50 (eeAChE; read-out: IC50 (μM) ± SEM eeAChE): 0.97 ± 0.1 µM
O=C1CC(c2ccccc2)CC2=C1C(c1c[nH]c3ccccc13)n1c(s/c(=C\c3ccc(OCCNCCc4c[nH]c5ccccc45)cc3)c1=O)=N2 (centres unmarked) [Compound 36]	1390 ± 60	17.2	0.081 ± 0.03 µM		100 ± 10			IC50 (μM) ± SEM hMAO-A (hMAO-A): not able to show MAO-A inhibition activity at tested concentration
